Reference: article PMC6921279 (Frontiers in Endocrinology, 2019)

What was measured:
[1] = test system: CRF1R-mediated ERK1/2 phosphorylation; assay: Modulation of CRF-stimulated ERK1/2 phosphorylation in COS-7 cells expressing HA-CRF1R; assay type: cell-based; settings: wortmannin (0–100 nM), 30 min pretreatment; 100 nM CRF, 5 min
How it was run: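 Lysates were immunoblotted for phospho-ERK1/2 Thr202/Tyr204. Phosphorylation was quantified by densitometry as the mean of three to five independent experiments.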

[2] = test system: EGF-stimulated ERK1/2 phosphorylation; assay: Modulation of EGF-stimulated ERK1/2 phosphorylation in COS-7 cells; assay type: cell-based; settings: wortmannin 100 nM, 30 min pretreatment; 10 ng/ml EGF, 10 min
Method: COS-7 cells (from the American Type Culture Collection) were cultured at 37°C in a humidified atmosphere of 95% air, 5% CO2, in DMEM supplemented with 10% FBS, 100 μg/ml streptomycin, and 100 units/ml penicillin (COS-7 growth medium). Transient transfections were performed using LipofectAMINE (Life Technologies: Gaithersburg, MD) as described previously ([27]). Cells were seeded at 8 × 10^5 cells/10-cm dish in COS-7 medium and cultured for 3 days before transfection. COS-7 cells were transfected in 5 ml/dish OptiMEM containing 10 μg/ml LipofectAMINE with empty vector, pcDNA3 encoding the HA-CRF1R or the HA-CRF1R-Δ386 mutant. […] After replacing the transfection medium with fresh growth medium, transfected COS-7 cells were cultured for 1 day. […]
The protocols for measuring total and phosphorylated ERK1/2, c-Src, PYK2, Akt, and EGFR have been previously published ([28], [29]). […] The labeled bands were quantified using the Quantity One 4.6.3 software program (Bio-Rad).
Figure 3 Involvement of EGFR transactivation in CRF-stimulated ERK1/2 phosphorylation. […] Total cell lysates were separated by SDS-PAGE and analyzed by immunoblotting with anti-p-ERK1/2 Thr^202/Tyr^204 (A–D) or anti-p-EGFR Tyr^1068 (E), as described in Materials and Methods. ERK1/2 and EGFR phosphorylation were quantitated by densitometry, and mean values were plotted from three to five independent experiments. […]

`COC[C@H]1OC(=O)c2coc3c2[C@@]1(C)C1=C(C3=O)[C@@H]2CCC(=O)[C@@]2(C)C[C@H]1OC(C)=O` [wortmannin] was tested, and the “effect on CRF-stimulated ERK1/2 phosphorylation” value [1] was “abolished CRF-stimulated ERK1/2 phosphorylation” and the “effect on EGF-stimulated ERK1/2 phosphorylation” value [2] was “unable to inhibit the effect of EGF”.
